Reference: article PMC11604048, “Constrained TACC3 peptidomimetics for a non-canonical protein–protein interface elucidate allosteric communication in Aurora-A kinase” (Chemical Science, 2024)
*1 amine or outer side, *2 acyl side, *3 side chain or, on linkers, in order; H or OH if unused. Where a SMILES comes first, the peptide text is derived from it. Bridges are numbered along the chain shown (N, C = ends). [ ]: non-standard residue; d: D form. The star is where a group is joined. 5FAM = O=C1OC2(c3ccc(O)cc3Oc3cc(O)ccc32)c2ccc(C(=O)*)cc21; Biphenyl(4,4'-CH2)2 = c1cc(-c2ccc(C[*:2])cc2)ccc1C[*:1]; Pro(trans-4-F) = O=C(O)[C@@H]1C[C@@H](F)CN1; Phe(4-Br) = N[C@@H](Cc1ccc(Br)cc1)C(=O)O; Phe(4-I) = N[C@@H](Cc1ccc(I)cc1)C(=O)O; Ahx = NCCCCCC(=O)O

What was measured:
[1] = target: T1, Aurora-A122-403-C290A/C393A (Homo sapiens, UniProt O14965, C290A/C393A); experiment: FA direct binding assay (Aurora-A titrated into FAM-Ahx-labelled peptide); set-up: ΔG: unit not given here; conditions: for ΔG: Table S6, from direct FA titration, n = 6
T1 construct: Human Aurora-A kinase domain 122-403 wild-type or C290A/ C393A mutant; His tag (pET30TEV vector) (N, cleaved yes); made in house; host or cells: E. coli RIL, co-expressed with lambda phosphatase (Aurora-A); tracer by solid phase synthesis
T1 sequence (O14965 122-403 C290A/C393A): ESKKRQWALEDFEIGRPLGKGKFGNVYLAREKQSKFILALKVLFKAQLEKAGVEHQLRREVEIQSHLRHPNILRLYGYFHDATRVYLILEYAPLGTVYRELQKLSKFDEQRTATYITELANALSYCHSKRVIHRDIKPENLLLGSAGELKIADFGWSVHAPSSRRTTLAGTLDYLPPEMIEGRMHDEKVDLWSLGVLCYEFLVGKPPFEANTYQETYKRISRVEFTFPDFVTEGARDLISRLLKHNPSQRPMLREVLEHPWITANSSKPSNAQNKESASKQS
Description: Fluorescence anisotropy (FA) assays – General information.
All assays were performed using 384-well plates(Greiner Bio-one, UK). […]
produced as described previously.11 All samples were prepared in 25 mM Tris,150 mM NaCl, 5 mM MgCl2, […]
(PerkinElmer; Waltham, MA, USA).The parameters were set as follows: Excitation wavelength = 480 nm […]
Measured data were processed and analysed as previously described.12 Specifically, the perpendicular intensity (P) and parallel intensity (S) were subtracted by the control values and used for calculations of intensity and anisotropy using the following Equations 1, 2, 3, 4, and 5:
I= (2PG) + S Eq. (SI − 5)
r = (S − PG) Eq. (SI − 6)
L = r − r௠௜௡ Eq. (SI − 7)
y = (k + x + [FL]) − ඥ(k + x + [FL]2 − 4 ∗ x ∗ [FL]) Eq. (SI − 8)
y = r + r௠௜௡ − r௠௔௫ Eq. (SI − 9)
Where I = total intensity; P = perpendicular intensity; S = parallel intensity; G = instrument factor; r = anisotropy; Lb = ligand bound fraction; λ = change in intensity between bound and unbound states which […]
FA direct binding assays. […]
starting from 700 μM, diluted over 24 points in a 1/2 regime using the FAM-Ahx-labeled peptides at a final fixed concentration of 50 nM per well.

[2] = target: T1, Aurora-A122-403-C290A/C393A; experiment: Isothermal titration calorimetry (ITC); assay type: binding; conditions: single titration
Description: Isothermal titration calorimetry (ITC). ITC experiments were carried out using a MicroCal PEAQ-ITC system (Malvern Panalytical) at 25 °C. A stock solution of Aurora-A 122-403-290A/C393A was dialyzed into ITC buffer overnight (25 mM Tris buffer, pH= 7.5; 150 mM NaCl; 5 mM MgCl2; 5 % v/v glycerol), and the same buffer was employed to resuspend a solid portion of the testing peptides. For each experiment, initially, the cell was filled with 275 µl of Aurora-A122-403-290A/C393A (46 μM) and the syringe was loaded with the corresponding peptide at 1.25 mM concentration. An initial injection of 0.5 μL was then followed by 13 injections of 3 μL, every 150 s, with a constant syringe rotation speed of 750 rpm throughout. The signal for the enthalpy of dilution of each peptide into buffer was independently measured in a control titration experiment and then subtracted from the experimental binding traces. The Kd, ΔG°, ΔH° and -TΔS° values were determined via the MicroCal PEAQ-ITC analysis software (Malvern Paranalytical) using a single-site binding model. […]

[3] = target: T1, Aurora-A122-403-C290A/C393A; experiment: Competition FA assay against FAM-Ahx-TACC3 522-536 tracer; assay type: binding; conditions: as E1; oxidised (disulfide) species made in situ from 10 mM stock in aqueous DMSO 33% v/v, air, overnight; WT control (+DMSO) given the same DMSO incubation; mean ± SD, n = 3; read-out: IC50 (ox)
[4] = Table S6, direct FA titration, 50 nM fluorescein-labelled peptide, Tris buffer pH 7.5, mean ± SD, n = 6, read-out: Kd
[5] = 50 nM fluorescein-labelled peptide, mean ± SD
[6] = direct FA titration of Aurora-A122-403-C290A/C393A into 50 nM FAM-Ahx-labelled peptide, 25 mM Tris, 150 mM NaCl, 5 mM MgCl2, pH 7.5, 25 °C, mean ± SD, n = 3, read-out: Kd

Compound	Kd [1, 4]	ΔG [1, 5]	Kd [1, 6]	other results
CC(C)C[C@H](NC(=O)[C@@H](NC(=O)[C@H](CCC(=O)O)NC(=O)[C@H](C)NC(=O)[C@@H]1C[C@@H](F)CN1C(=O)[C@H](CC(=O)O)NC(=O)[C@@H]1CSCc2ccc(cc2)-c2ccc(cc2)CSC[C@H](NC(=O)[C@H](CCC(=O)O)NC(=O)[C@H](CC(C)C)NC(=O)CCCCCNC(=O)c2ccc3c(c2)C(=O)OC32c3ccc(O)cc3Oc3cc(O)ccc32)C(=O)N[C@@H](CCCCN)C(=O)N[C@@H](CCC(=O)O)C(=O)N[C@@H](CCC(=O)O)C(=O)N[C@@H](CO)C(=O)N[C@@H](Cc2ccc(Br)cc2)C(=O)N1)C(C)C)C(N)=O [FAM-Ahx-TACC3 518-532-L/R-Bph-BrF/fP] ({5FAM-Ahx}-LECKEES[Phe(4-Br)]CD[Pro(trans-4-F)]AEVL-NH2; linker 3-9 via Biphenyl(4,4'-CH2)2)	1.48 ± 0.16 µM	-33.3 ± 0.3		
CC(C)C[C@H](NC(=O)[C@@H](NC(=O)[C@@H]1CSCc2ccc(cc2)-c2ccc(cc2)CSC[C@H](NC(=O)[C@H](CCC(=O)O)NC(=O)[C@H](CCC(=O)O)NC(=O)[C@H](CCCCN)NC(=O)[C@H](CC(C)C)NC(=O)[C@H](CCC(=O)O)NC(=O)[C@H](CC(C)C)NC(=O)CCCCCNC(=O)c2ccc3c(c2)C(=O)OC32c3ccc(O)cc3Oc3cc(O)ccc32)C(=O)N[C@@H](Cc2ccc(Br)cc2)C(=O)N[C@@H](CCCNC(=N)N)C(=O)N[C@@H](CC(=O)O)C(=O)N2C[C@H](F)C[C@H]2C(=O)N[C@@H](C)C(=O)N1)C(C)C)C(N)=O [FAM-Ahx-TACC3 518-532-S/E-Bph-BrF/fP] ({5FAM-Ahx}-LELKEEC[Phe(4-Br)]RD[Pro(trans-4-F)]ACVL-NH2; linker 7-13 via Biphenyl(4,4'-CH2)2)	0.62 ± 0.15 µM	-35.5 ± 0.6		
CC(C)C[C@H](NC(=O)[C@@H](NC(=O)[C@@H]1CSCc2ccc(cc2)-c2ccc(cc2)CSC[C@H](NC(=O)[C@H](CCC(=O)O)NC(=O)[C@H](CCC(=O)O)NC(=O)[C@H](CCCCN)NC(=O)[C@H](CC(C)C)NC(=O)[C@H](CCC(=O)O)NC(=O)[C@H](CC(C)C)NC(=O)CCCCCNC(=O)c2ccc3c(c2)C(=O)OC32c3ccc(O)cc3Oc3cc(O)ccc32)C(=O)N[C@@H](Cc2ccc(I)cc2)C(=O)N[C@@H](CCCNC(=N)N)C(=O)N[C@@H](CC(=O)O)C(=O)N2C[C@H](F)C[C@H]2C(=O)N[C@@H](C)C(=O)N1)C(C)C)C(N)=O [FAM-Ahx-TACC3 518-532-S/E-Bph-IF/fP] ({5FAM-Ahx}-LELKEEC[Phe(4-I)]RD[Pro(trans-4-F)]ACVL-NH2; linker 7-13 via Biphenyl(4,4'-CH2)2)	0.9 ± 0.2 µM	-34.6 ± 0.6	0.8 ± 0.2 µM	
CC(C)C[C@H](NC(=O)[C@@H](NC(=O)[C@H](CCC(=O)O)NC(=O)[C@H](C)NC(=O)[C@@H]1CCCN1C(=O)[C@H](CC(=O)O)NC(=O)[C@H](CCCNC(=N)N)NC(=O)[C@H](Cc1ccccc1)NC(=O)[C@H](CO)NC(=O)[C@H](CCC(=O)O)NC(=O)[C@H](CCC(=O)O)NC(=O)CCCCCNC(=O)c1ccc2c(c1)C(=O)OC21c2ccc(O)cc2Oc2cc(O)ccc21)C(C)C)C(N)=O [FAM-Ahx-TACC3 522-532] ({5FAM-Ahx}-EESFRDPAEVL-NH2)			7.1 ± 0.8 µM	
CC(C)C[C@H](NC(=O)[C@@H](NC(=O)[C@H](CCC(=O)O)NC(=O)[C@H](C)NC(=O)[C@@H]1CCCN1C(=O)[C@H](CC(=O)O)NC(=O)[C@H](CCCNC(=N)N)NC(=O)[C@H](Cc1ccccc1)NC(=O)[C@H](CO)NC(=O)[C@H](CCC(=O)O)NC(=O)[C@H](CCC(=O)O)NC(=O)CCCCCNC(=O)c1ccc2c(c1)C(=O)OC21c2ccc(O)cc2Oc2cc(O)ccc21)C(C)C)C(=O)NCC(=O)N[C@H](C(=O)NCC(=O)N[C@@H](C)C(N)=O)[C@@H](C)O [FAM-Ahx-TACC3 522-536]				Kd ([1]; SD): 10.5 ± 1.13 µM
CC(C)C[C@H](NC(=O)[C@H](Cc1ccc(O)cc1)NC(=O)[C@H](CC(=O)O)NC(=O)[C@@H](NC(=O)[C@H](CCC(=O)O)NC(=O)[C@H](C)NC(=O)CNC(=O)[C@@H](NC(=O)CNC(=O)[C@H](CC(C)C)NC(=O)[C@@H](NC(=O)[C@H](CCC(=O)O)NC(=O)[C@H](C)NC(=O)[C@@H]1CCCN1C(=O)[C@H](CC(=O)O)NC(=O)[C@H](CCCNC(=N)N)NC(=O)[C@H](Cc1ccccc1)NC(=O)[C@H](CO)NC(=O)[C@H](CCC(=O)O)NC(=O)[C@H](CCC(=O)O)NC(=O)CCCCCNC(=O)c1ccc2c(c1)C(=O)OC21c2ccc(O)cc2Oc2cc(O)ccc21)C(C)C)[C@@H](C)O)C(C)C)C(=O)N[C@@H](CCC(=O)O)C(N)=O [FAM-Ahx-TACC3 522-542] ({5FAM-Ahx}-EESFRDPAEVLGTGAEVDYLE-NH2)			4.5 ± 0.2 µM	
CC(C)C[C@H](NC(=O)[C@H](Cc1ccc(O)cc1)NC(=O)[C@H](CC(=O)O)NC(=O)[C@@H](NC(=O)[C@H](CCC(=O)O)NC(=O)[C@H](C)NC(=O)CNC(=O)[C@@H](NC(=O)CNC(=O)[C@H](CC(C)C)NC(=O)[C@@H](NC(=O)[C@H](CCC(=O)O)NC(=O)[C@H](C)NC(=O)[C@@H]1CCCN1C(=O)[C@H](CC(=O)O)NC(=O)[C@H](CCCNC(=N)N)NC(=O)[C@H](Cc1ccccc1)NC(=O)[C@H](CO)NC(=O)[C@H](CCC(=O)O)NC(=O)[C@H](CCC(=O)O)NC(=O)CCCCCNC(=O)c1ccc2c(c1)C(=O)OC21c2ccc(O)cc2Oc2cc(O)ccc21)C(C)C)[C@@H](C)O)C(C)C)C(=O)N[C@@H](CCC(=O)O)C(=O)N[C@@H](CCC(N)=O)C(=O)N[C@@H](Cc1ccccc1)C(=O)NCC(=O)N[C@H](C(=O)N[C@@H](CO)C(=O)N[C@@H](CO)C(=O)N[C@@H](Cc1ccccc1)C(=O)N[C@@H](CCCCN)C(=O)N[C@@H](CCC(=O)O)C(=O)N[C@@H](CO)C(N)=O)[C@@H](C)O [FAM-Ahx-TACC3 522-552] ({5FAM-Ahx}-EESFRDPAEVLGTGAEVDYLEQFGTSSFKES-NH2)			5.2 ± 0.5 µM	
CC(=O)N[C@@H](CCC(=O)O)C(=O)N[C@@H](CCC(=O)O)C(=O)N[C@@H](CO)C(=O)N[C@@H](Cc1ccccc1)C(=O)N[C@@H](CCCNC(=N)N)C(=O)N[C@@H](CC(=O)O)C(=O)N1CCC[C@H]1C(=O)N[C@@H](C)C(=O)N[C@@H](CCC(=O)O)C(=O)N[C@H](C(=O)N[C@@H](CC(C)C)C(=O)NCC(=O)N[C@H](C(=O)NCC(=O)N[C@@H](C)C(N)=O)[C@@H](C)O)C(C)C [TACC3 522-536]				Kd ([2]; ITC 25 °C, Aurora-A 46 µM in cell, Ac-capped peptide 1.25 mM, 25 mM Tris, 150 mM NaCl, 5 mM MgCl2, 5% v/v glycerol, pH 7.5, N restrained fit (N = 1)): 57.4 µM; Kd ([2]; ITC as E13, N unrestrained fit): 58.6 µM
Ac-LECKEESFCDPAEVL-NH2 (disulfide 3-9 (inferred)) [TACC3 518-532 L520C/R526C (ox), disulfide form of the Cys variant]				IC50 [3]: ≥ 200 µM
